Assay results: ChEMBL document CHEMBL1201862, “PubChem BioAssay data set” (2004)
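Interpolation was linear, between the two tested concentrations surrounding the appropriate level; five concentrations were tested over 48 hours in 96-well plates. GI50 marks 50% less growth.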 Activity calls are given as the source filed them. No stated cut-off is given here; in the data, active = GI50 up to about 1.1 µM and inactive = higher.

Tests used:
Test in all cases: NCI tumour cell line growth inhibition, 48 h
DLD-1 = test system: DLD-1
EKVX = test system: EKVX
DMS-114 = test system: DMS-114
SNB-78 = test system: SNB-78
HOP-18 = test system: HOP-18
M14 = test system: M14
DMS-273 = test system: DMS-273
KM-20L2 = test system: KM-20L2
ACHN = test system: ACHN
M19-MEL = test system: M19-MEL
SR = test system: SR
OVCAR-8 = test system: OVCAR-8
NCI-H522 = test system: NCI-H522
MCF7 = test system: MCF7
CAKI-1 = test system: CAKI-1

Measured: GI50

Nc1ccccc1Sc1ccc(Cl)cc1
inactive: DLD-1 34.6 µM | EKVX 30.1 µM | DMS-114 21.2 µM | SNB-78 17 µM | HOP-18 43.2 µM | M14 31.8 µM | DMS-273 26.1 µM | KM-20L2 20.9 µM | ACHN 27 µM | M19-MEL 23 µM | SR 21.2 µM | OVCAR-8 37.5 µM

COC1C(O)C(n2ncc3c(SC)nc(SC)nc32)OC1C(O)CO (stereo unspecified)
inactive: DLD-1 > 100 µM | EKVX > 100 µM | DMS-114 > 100 µM | SNB-78 > 100 µM | HOP-18 > 100 µM | DMS-273 > 100 µM | KM-20L2 > 100 µM | M19-MEL > 100 µM | NCI-H522 > 100 µM | MCF7 > 100 µM | OVCAR-8 > 100 µM

Cc1ccc(C#CS(=O)(=O)C(F)(F)F)cc1
inactive: DLD-1 > 100 µM | EKVX > 100 µM | DMS-114 > 100 µM | SNB-78 > 100 µM | HOP-18 > 100 µM | DMS-273 > 100 µM | KM-20L2 > 100 µM | M19-MEL > 100 µM | NCI-H522 > 100 µM | MCF7 > 100 µM | OVCAR-8 > 100 µM

O=C1NC(=O)C(CCO)(c2ccccc2)C(=O)N1
inactive: DLD-1 > 100 µM | EKVX > 100 µM | DMS-114 > 100 µM | SNB-78 > 100 µM | HOP-18 > 100 µM | DMS-273 > 100 µM | KM-20L2 > 100 µM | M19-MEL > 100 µM | NCI-H522 > 100 µM | MCF7 > 100 µM | OVCAR-8 > 100 µM

N#CC1=C(O)NC(O)=C(C#N)C1c1c(Cl)cccc1Cl
inactive: DLD-1 16.7 µM | EKVX 40.7 µM | DMS-114 18.8 µM | SNB-78 26.2 µM | HOP-18 > 100 µM | M14 26.9 µM | DMS-273 26.2 µM | KM-20L2 34.8 µM | ACHN 33.3 µM | M19-MEL 21.4 µM | SR > 100 µM | NCI-H522 35.2 µM | CAKI-1 30.1 µM | OVCAR-8 20.2 µM

CCOC(=O)c1c[nH]c2cc3c(cc2c1=O)CCS3(=O)=O.CCOC(=O)c1c[nH]c2ccc3c(c2c1=O)S(=O)(=O)CC3
inactive: DLD-1 > 100 µM | EKVX > 100 µM | DMS-114 > 100 µM | SNB-78 > 100 µM | HOP-18 97.1 µM | DMS-273 > 100 µM | KM-20L2 > 100 µM | M19-MEL > 100 µM | NCI-H522 > 100 µM | MCF7 83.8 µM | CAKI-1 > 100 µM | OVCAR-8 > 100 µM
